Our source for the Ratio IC50 and IC50 values is ChEMBL document CHEMBL3817800, “Dihydropyrimidones: As novel class of β-glucuronidase inhibitors” (Bioorg Med Chem, 2016).

For one test, the target named is T1, Beta-glucuronidase (Bos taurus) (UniProt A3KMY8).
T1 sequence (whole entry): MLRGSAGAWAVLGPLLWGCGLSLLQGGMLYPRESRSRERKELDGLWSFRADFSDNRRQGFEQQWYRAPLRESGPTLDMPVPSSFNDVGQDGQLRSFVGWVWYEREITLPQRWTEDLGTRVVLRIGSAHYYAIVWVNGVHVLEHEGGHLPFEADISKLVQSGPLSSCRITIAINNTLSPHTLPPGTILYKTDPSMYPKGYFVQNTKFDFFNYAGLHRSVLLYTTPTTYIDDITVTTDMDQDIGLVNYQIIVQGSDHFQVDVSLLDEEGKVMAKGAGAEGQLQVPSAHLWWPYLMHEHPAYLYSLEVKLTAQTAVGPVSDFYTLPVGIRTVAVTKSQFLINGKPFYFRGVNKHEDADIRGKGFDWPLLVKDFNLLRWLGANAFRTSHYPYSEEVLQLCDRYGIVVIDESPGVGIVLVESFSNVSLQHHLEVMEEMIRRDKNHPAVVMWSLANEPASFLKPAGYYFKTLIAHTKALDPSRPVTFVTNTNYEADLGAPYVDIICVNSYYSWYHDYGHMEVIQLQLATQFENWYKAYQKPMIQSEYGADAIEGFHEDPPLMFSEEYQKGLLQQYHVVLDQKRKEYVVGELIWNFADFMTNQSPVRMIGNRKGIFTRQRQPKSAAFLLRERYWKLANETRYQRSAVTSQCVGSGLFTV
Put plainly: Potency index, ratio of D-saccharic acid 1,4-lactone IC50 to compound IC50 for bovine liver beta-glucuronidase.
Conditions: not given; call rule not given here
In the case of `COC(=O)C1=C(C)NC(=O)NC1c1ccc(C(F)(F)F)cc1` (stereo not given), the Ratio IC50 turned out to be 5. Still for that read-out and setting: under `COC(=O)C1=C(C)NC(=O)NC1c1cccc(O)c1` (stereo not given) stands over 3; under `COC(=O)C1=C(C)NC(=O)NC1c1c(Cl)cccc1Cl` (stereo not given), 2.

A further test has as its target T2, Beta-glucuronidase (Bos taurus, UniProt A3KMY8).
T2 sequence (A3KMY8 whole entry): T1 sequence (whole entry)
The experiment in a line: Inhibition of bovine liver beta-glucuronidase assessed as p-nitrophenol formation preincubated for 30 mins followed by p-nitrophenyl-beta-D-glucuronide addition by spectrophotometric method.
Conditions: not given
As for `COC(=O)C1=C(C)NC(=O)NC1c1ccc(C(C)C)cc1` (stereo not given), the IC50 (usually the concentration that gives 50% inhibition) is recorded as “Not Active”. The same measure, in the same setting: under `COC(=O)C1=C(C)NC(=O)NC1c1cccc(OCc2ccccc2)c1` (stereo not given) stands “Not Active”; under `COC(=O)C1=C(C)NC(=O)NC1c1ccccc1` (stereo not given), “Not Active”; under `COC(=O)C1=C(C)NC(=O)NC1c1ccc2ccccc2c1` (stereo not given), “Not Active”. In the case of `COC(=O)C1=C(C)NC(=O)NC1c1ccccc1OCc1ccccc1` (stereo not given), the IC50 entry is listed as “Not Active”. Still for that read-out and setting: under `COC(=O)C1=C(C)NC(=O)NC1c1ccc(OC)c(OCc2ccccc2)c1` (stereo not given) stands “Not Active”; under `COC(=O)C1=C(C)NC(=O)NC1c1ccc(OC)c(OC)c1` (stereo not given), “Not Active”. The same measure, in the same setting: for `COC(=O)C1=C(C)NC(=O)NC1c1cc(Br)c(OC)c(OC)c1` (stereo not given) the value was “Not Active”.

The test is the same for the next values; noted with them: read-out: IC50.
In the case of `CCC1NC(=O)NC(C)=C1C(=O)OC` (stereo not given), the IC50 worked out at 52.2 µM. Turning to `COC(=O)C1=C(C)NC(=O)NC1c1ccc(F)c(OC)c1` (stereo not given), the IC50 turned out to be 22.1 µM. Regarding `COC(=O)C1=C(C)NC(=O)NC1c1cc(OC)c(O)c(OC)c1` (stereo not given), the IC50 came out at 34.2 µM.

As to `COC(=O)C1=C(C)NC(=O)NC1c1ccccc1F` (stereo not given), the IC50 amounted to 14.1 µM.

Turning to `COC(=O)C1=C(C)NC(=O)NC1c1ccc(C(F)(F)F)cc1` (stereo not given), the IC50 turned out to be 9.38 µM.

Consider `COC(=O)C1=C(C)NC(=O)NC1c1cccs1` (stereo not given), for which the IC50 turned out to be 18.2 µM. The same measure, in the same setting: under `COC(=O)C1=C(C)NC(=O)NC1c1cc(OC)ccc1OC` (stereo not given) stands 61 µM; under `COC(=O)C1=C(C)NC(=O)NC1c1cccc(O)c1` (stereo not given), 15.2 µM.

Regarding `COC(=O)C1=C(C)NC(=O)NC1c1cccc(OC)c1OC` (stereo not given), the IC50 was determined as 54.2 µM. For the molecule `COC(=O)C1=C(C)NC(=O)NC1c1ccc(OC)cc1` (stereo not given), the IC50 turned out to be 59.2 µM. Regarding `COC(=O)C1=C(C)NC(=O)NC1c1cccc2ccccc12` (stereo not given), the IC50 was 48.2 µM.

Consider `CCOc1ccc(C2NC(=O)NC(C)=C2C(=O)OC)cc1` (stereo not given), for which the IC50 was 72.2 µM. Take `COC(=O)C1=C(C)NC(=O)NC1c1ccc(OC)cc1F` (stereo not given): the IC50 was determined as 18.2 µM. `COC(=O)C1=C(C)NC(=O)NC1c1ccc(OC(C)=O)c(OC)c1` (stereo not given): the IC50 was determined as 28.2 µM. In the case of `COC(=O)C1=C(C)NC(=O)NC1c1ccc(Br)cc1` (stereo not given), the half-maximal inhibitory concentration (IC50) came out at 64.1 µM. The same measure, in the same setting: under `COC(=O)C1=C(C)NC(=O)NC1c1c(Cl)cccc1Cl` (stereo not given) stands 24.2 µM; under `COC(=O)C1=C(C)NC(=O)NC1c1ccco1` (stereo not given), 40.2 µM. Same read-out and setting: for `COC(=O)C1=C(C)NC(=O)NC1c1ccc([N+](=O)[O-])cc1` (stereo not given) the value was 49.1 µM.

In the case of `COC(=O)C1=C(C)NC(=O)NC1c1ccsc1` (stereo not given), the IC50 was 47.2 µM. On to `COC(=O)C1=C(C)NC(=O)NC1c1ccc(N(C)C)cc1` (stereo not given), for which the IC50 was determined as 49.2 µM. For `COC(=O)C1=C(C)NC(=O)NC1c1ccc(C)s1` (stereo not given), the IC50 came to 33.1 µM. In the case of `COC(=O)C1=C(C)NC(=O)NC1c1ccccc1Cl` (stereo not given), the IC50 stood at 44.2 µM. Still for that read-out and setting: under `COC(=O)C1=C(C)NC(=O)NC1c1ccc(O)cc1` (stereo not given) stands 17.6 µM; under `COC(=O)C1=C(C)NC(=O)NC1CC(C)C` (stereo not given), 55.2 µM; under `COC(=O)C1=C(C)NC(=O)NC1c1ccccc1OC` (stereo not given), 59.2 µM.

With `CCCCC1NC(=O)NC(C)=C1C(=O)OC` (stereo not given), the IC50 is 78.2 µM.

As for `COC(=O)C1=C(C)NC(=O)NC1c1ccc(Cl)cc1` (stereo not given), the IC50 turned out to be 34.2 µM.

Turning to `COC(=O)C1=C(C)NC(=O)NC1c1ccc(C)o1` (stereo not given), the IC50 was found to be 44.2 µM.

As for `COC(=O)C1=C(C)NC(=O)NC1c1ccc(O)c(Cl)c1` (stereo not given), the IC50 is 27.2 µM.
